The target of data set [1] is T1, [Pyruvate dehydrogenase (acetyl-transferring)] kinase isozyme 2, mitochondrial (Homo sapiens, UniProt Q15119). Briefly: Inhibition of N-terminal His6-SUMO tagged recombinant human PDK2 using [32P]-gamma-ATP assessed as decrease in incorporation of radioactivity into E1 protein incubated for 2 mins.
The subject of data set [2] is Plasma. Briefly: AUClast in CD1 mouse plasma at 70 mg/kg, ip by LC-MS/MS analysis. Format: ADME, organism-based. Conditions: in vivo. More on the design: dose 70 mg/kg, route intraperitoneal, time 0 - last.
A short description of data set [3]: Apparent clearance in CD1 mouse muscle at 70 mg/kg, ip by LC-MS/MS analysis. In kind it is ADME, organism-based, Muscle tissue. Conditions: in vivo.
Data set [4] is described as follows: AUClast in CD1 mouse muscle at 70 mg/kg, ip by LC-MS/MS analysis. Format: ADME, organism-based, Muscle tissue. To be noted: in vivo.
A short description of data set [5]: Apparent volume of distribution during terminal phase in CD1 mouse muscle at 70 mg/kg, ip by LC-MS/MS analysis. In kind it is ADME, organism-based, Muscle tissue. Conditions: in vivo.
Data set [6] deals with Liver. Kind of data set: Apparent volume of distribution during terminal phase in CD1 mouse liver at 70 mg/kg, ip by LC-MS/MS analysis. Format: ADME, organism-based. To be noted: in vivo.
In data set [7] the test system is Plasma. Briefly: Terminal half life in CD1 mouse plasma at 70 mg/kg, ip by LC-MS/MS analysis. Conditions: in vivo. Format: ADME, organism-based.
Data set [8] in a line: Apparent clearance in CD1 mouse plasma at 70 mg/kg, ip by LC-MS/MS analysis. Format: ADME, organism-based.
The subject of data set [9] is Liver. Briefly: AUClast in CD1 mouse liver at 70 mg/kg, ip by LC-MS/MS analysis. Format: ADME, organism-based. Conditions: in vivo.
The target in data set [10] is T1, [Pyruvate dehydrogenase (acetyl-transferring)] kinase isozyme 2, mitochondrial. Briefly: Binding affinity to N-terminal His6-SUMO tagged recombinant human PDK2 by isothermal titration calorimetry.
A short description of data set [11]: Tmax in CD1 mouse muscle at 70 mg/kg, ip by LC-MS/MS analysis. In kind it is ADME, organism-based, Muscle tissue.
Data set [12] is described as follows: Cmax in CD1 mouse muscle at 70 mg/kg, ip by LC-MS/MS analysis. Format: ADME, organism-based, Muscle tissue. More on the design: dose 70 mg/kg, route intraperitoneal.
Data set [13] relates to Plasma. Kind of data set: Apparent volume of distribution during terminal phase in CD1 mouse plasma at 70 mg/kg, ip by LC-MS/MS analysis. Conditions: in vivo. In kind it is ADME, organism-based.
Data set [14] relates to Liver. Briefly: Tmax in CD1 mouse liver at 70 mg/kg, ip by LC-MS/MS analysis. Format: ADME, organism-based. To be noted: in vivo.
Data set [15] has as its system Plasma. Kind of data set: Cmax in CD1 mouse plasma at 70 mg/kg, ip by LC-MS/MS analysis. Format: ADME, organism-based. The arrangement: dose 70 mg/kg, route intraperitoneal. Conditions: in vivo.
Data set [16] deals with Plasma. Briefly: Tmax in CD1 mouse plasma at 70 mg/kg, ip by LC-MS/MS analysis. To be noted: in vivo. Format: ADME, organism-based.
The test system of data set [17] is Liver. Briefly: Cmax in CD1 mouse liver at 70 mg/kg, ip by LC-MS/MS analysis. In kind it is ADME, organism-based. The arrangement: dose 70 mg/kg, route intraperitoneal. To be noted: in vivo.
Data set [18] has as its system Liver. Kind of data set: Terminal half life in CD1 mouse liver at 70 mg/kg, ip by LC-MS/MS analysis. To be noted: in vivo. Format: ADME, organism-based.
Data set [19] in a line: Terminal half life in CD1 mouse muscle at 70 mg/kg, ip by LC-MS/MS analysis. Format: ADME, organism-based, Muscle tissue. Conditions: read-out: beta t1/2.
The test system of data set [20] is Liver. Kind of data set: Apparent clearance in CD1 mouse liver at 70 mg/kg, ip by LC-MS/MS analysis. Conditions: in vivo. Format: ADME, organism-based.

For orientation: IC50 means the point on the concentration scale where inhibition reaches its midpoint. Take `O=C(O)CC(=O)N1CCC(Nc2ccc3c(c2)CN(S(=O)(=O)c2ccc(O)cc2O)C3)CC1`: in data set [1], the 50% inhibitory concentration (IC50) worked out at 1660 nM.

Take `O=S(=O)(c1ccc(O)cc1O)N1Cc2ccc(O)cc2C1`: the IC50 in [1] worked out at 570 nM.

As to `O=S(=O)(c1ccc(O)cc1O)N1Cc2ccc(NC3CCN(CC(O)CO)CC3)cc2C1` (configuration not stated), the IC50 in [1] was found to be 154 nM.

Take `NC(=O)C[C@H](N)C(=O)N1CCCN(c2ccc3c(c2)CN(S(=O)(=O)c2ccc(O)cc2O)C3)CC1`: the IC50 in data set [1] was 1510 nM.

Regarding `O=C(O)CCCCCCCC(=O)N1CCC(Nc2ccc3c(c2)CN(S(=O)(=O)c2ccc(O)cc2O)C3)CC1`, the IC50 in data set [1] stood at 629 nM.

For `O=S(=O)(c1ccc(O)cc1O)N1Cc2ccc(NC3CCCCC3)cc2C1`, in data set [1], the IC50 was determined as 1200 nM.

For the molecule `NCCCC[C@H](N)C(=O)N1CCC(Nc2ccc3c(c2)CN(S(=O)(=O)c2ccc(O)cc2O)C3)CC1`, the concentration for half-maximal inhibition (IC50) in data set [1] stood at 580 nM.

Turning to `NC(=O)C[C@H](N)C(=O)NCCCNc1ccc2c(c1)CN(S(=O)(=O)c1ccc(O)cc1O)C2`, the IC50 in data set [1] is 67 nM.

On to `NC(=O)C[C@H](N)C(=O)N1CC(Nc2ccc3c(c2)CN(S(=O)(=O)c2ccc(O)cc2O)C3)C1`, for which the concentration for half-maximal inhibition (IC50) in data set [1] was found to be 65 nM.

Turning to `C[C@H](O)[C@H](N)C(=O)N1CCC(Nc2ccc3c(c2)CN(S(=O)(=O)c2ccc(O)cc2O)C3)CC1`, in [1], the IC50 came to 91 nM.

On to `O=S(=O)(c1ccc(O)cc1O)N1Cc2ccc(NC3CCN(Cc4ccccc4)CC3)cc2C1`, for which, in [1], the IC50 was 416 nM.

Consider `O=S(=O)(c1ccc(O)cc1O)N1Cc2ccc(N3CCNCC3)cc2C1`, for which the IC50 in data set [1] was determined as 1350 nM.

As a reminder, the Kd is the constant that tells how readily two partners part at equilibrium. The Tmax is the time from dosing to the highest level. The Cmax is the maximum level reached in the sampled fluid or tissue. For `O=S(=O)(c1ccc(O)cc1O)N1Cc2cc(O)cc(O)c2C1`, the AUClast with Plasma [2] was determined as 1494106 ng·min/mL; in data set [4] it was 885986 ng·min/g; in the data set with Liver [9] it was 245088 ng·min/g. Moreover, the CL/F in [3] came to 2.32 g/min; in [8], 1.39 mL/min; in the data set on Liver [20], 8.13 g/min. Further, the Vz/F in data set [5] worked out at 1720 g; in the data set on Liver [6] it was 1174 g; in the data set on Plasma [13], 679 mL. For the same molecule, the entries for the “beta t1/2” value in the data set on Plasma [7] and with Liver [18] were 339 min and 100 min, respectively. For the same molecule, the Kd in [10] amounted to 156 nM. Moreover, the Tmax was 30 min in data set [11], 10 min with Liver [14] and 10 min with Plasma [16]. The Cmax stood at 17400 ng/g in data set [12], 29000 ng/mL in the data set with Plasma [15] and 5707 ng/g with Liver [17]. Also, the half-life in [19] was found to be 514 min. In addition, the IC50 in [1] was determined as 456 nM.

(Values after ChEMBL document CHEMBL3997786, “Development of Dihydroxyphenyl Sulfonylisoindoline Derivatives as Liver-Targeting Pyruvate Dehydrogenase Kinase Inhibitors” (J Med Chem, 2017).)
